Results on 15 compounds are retold here after patent US10138207B2, “Benzomorphan analogs and the use thereof” (priority 2012, dated 2018).

In assay [1] the target is T1, μ-opioid receptor (Homo sapiens, UniProt P35372). As to the kind of experiment: μ-opioid receptor [35S]GTPγS functional assay, HEK-293 or CHO cells. The conditions noted are these: for Emax: read-out: GTPγS μ Emax.
The target of assay [2] is T2, κ opioid receptor (Homo sapiens, UniProt P41145). The experiment in a line: κ-opioid receptor [35S]GTPγS functional assay, HEK-293 or CHO cells. In kind it is biochemical. Also on record: expressed in transfected cells; host or cells: U-2 OS (in-house membranes). The conditions noted are these: for Emax: relative to U69,593. The method, then: Membranes from recombinant HEK-293 cells, CHO or U-2 OS cells expressing the recombinant human κ opioid receptor (κ) were prepared by lysing cells in ice cold hypotonic buffer (2.5 mM MgCl2, 50 mM HEPES, pH 7.4) (10 mL/10 cm dish) followed by homogenization with a tissue grinder/Teflon pestle. Membranes from a cell line naturally expressing kappa opioid receptors can also be used. Membranes were collected by centrifugation at 30,000×g for 15 min at 4° C. and pellets were resuspended in hypotonic buffer to a final concentration of 1-3 mg/mL. Protein concentrations were determined using the BioRad protein assay reagent with bovine serum albumen as standard. Aliquots of κ receptor membranes were stored at −80° C.
T2 sequence (P41145 whole entry): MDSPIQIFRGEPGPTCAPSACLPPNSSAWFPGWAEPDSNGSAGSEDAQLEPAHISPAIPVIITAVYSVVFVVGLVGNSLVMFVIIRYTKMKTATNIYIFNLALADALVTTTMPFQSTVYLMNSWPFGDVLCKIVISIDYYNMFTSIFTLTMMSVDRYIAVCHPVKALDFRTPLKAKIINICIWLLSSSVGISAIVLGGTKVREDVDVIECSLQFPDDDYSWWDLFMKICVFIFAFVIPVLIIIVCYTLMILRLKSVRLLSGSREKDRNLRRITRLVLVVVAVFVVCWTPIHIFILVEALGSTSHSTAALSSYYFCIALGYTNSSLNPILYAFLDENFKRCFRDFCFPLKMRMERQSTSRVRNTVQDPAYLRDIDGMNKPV
Plates were incubated for 30 min at a temperature of about 25° C. with shaking.

The target of assay [3] is T2, κ opioid receptor. As to the kind of experiment: biochemical. In kind it is binding. Further details: expressed in transfected cells; host or cells: HEK 293 (in-house membrane prep). The conditions noted are these: HEK-293 or CHO cells.
Assay [4] deals with T1, μ-opioid receptor. The experiment in a line: μ-opioid receptor [35S]GTPγS functional assay, U-2 OS cells. Further details: expressed in transfected cells; host or cells: U-2 OS. The conditions noted are these: U-2 OS cells; for EC50: read-out: GTPγS μ EC50; for Emax: relative to DAMGO, read-out: GTPγS μ Emax. In kind it is biochemical.
The target of assay [5] is T2, κ opioid receptor. As to the kind of experiment: κ-opioid receptor [35S]GTPγS functional assay, U-2 OS cells. In kind it is biochemical. Further details: expressed in transfected cells; host or cells: U-2 OS (in-house membranes). The conditions noted are these: U-2 OS cells.
The mark [6] stands for this setting: HEK-293 or CHO cells, bound in μM, read-out: GTPγS κ EC50.
The mark [7] stands for this setting: HEK-293 or CHO cells, read-out: GTPγS κ EC50.

Structures are written as SMILES.

T1 sequence (P35372 whole entry, species assumed): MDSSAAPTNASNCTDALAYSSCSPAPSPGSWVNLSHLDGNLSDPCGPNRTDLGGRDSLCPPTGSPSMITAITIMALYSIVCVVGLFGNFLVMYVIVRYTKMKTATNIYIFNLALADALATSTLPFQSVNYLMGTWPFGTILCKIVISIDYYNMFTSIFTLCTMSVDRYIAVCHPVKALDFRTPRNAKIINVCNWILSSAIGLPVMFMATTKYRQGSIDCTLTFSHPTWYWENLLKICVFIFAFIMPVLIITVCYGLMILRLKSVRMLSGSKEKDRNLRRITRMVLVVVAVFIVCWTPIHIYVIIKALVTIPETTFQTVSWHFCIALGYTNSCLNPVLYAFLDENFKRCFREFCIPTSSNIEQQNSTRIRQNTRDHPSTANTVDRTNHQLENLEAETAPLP

Consider `CN[C@@H]1[C@H]2Cc3ccc(OC)cc3[C@@]1(C)CCN2CC1CC1` [Compound 56, (2R,6R,11S)-3-(cyclopropylmethyl)-8-methoxy-N,6-dimethyl-1,2,3,4,5,6-hexahydro-2,6-methanobenzo[d]azocin-11-amine], for which the EC50 was 3810 ± 726 nM on μ-opioid receptor [1] and 2.58 ± 0.721 µM on κ opioid receptor [2]. Further, the figures for the Emax on μ-opioid receptor [1] and at κ opioid receptor [2] (HEK-293 or CHO cells) were 36.7 ± 7.22% and 25.7 ± 1.67%, respectively. In addition, the Ki at κ opioid receptor [3] is 170 ± 51.9 nM.

Regarding `CN(C(=O)Nc1ccc(C#N)cc1)[C@@H]1C2Cc3ccc(O)cc3[C@@]1(C)CCN2CC1CC1` [Compound 81, 3-(4-cyanophenyl)-1-((6R,11S)-3-(cyclopropylmethyl)-8-hydroxy-6-methyl-1,2,3,4,5,6-hexahydro-2,6-methanobenzo[d]azocin-11-yl)-1-methylurea], the EC50 at μ-opioid receptor [1] was 1230 ± 173 nM; on κ opioid receptor [2] (setting [6]), above 20 µM. In addition, the Emax at μ-opioid receptor [1] is 31.2 ± 2.87%. At κ opioid receptor [3], this compound had a Ki of 36.6 ± 4.94 nM.

Turning to `COc1ccc2c(c1)[C@@]1(C)CCN(C)C(C2)[C@@H]1c1cccc(C(N)=O)c1` [Compound 54, 3-((6S,11R)-8-methoxy-3,6-dimethyl-1,2,3,4,5,6-hexahydro-2,6-methanobenzo[d]azocin-11-yl)benzamide], the EC50 on μ-opioid receptor [1] is above 20000 nM; at κ opioid receptor [2] (setting [6]) it was above 20 µM. Moreover, at κ opioid receptor [3], the Ki turned out to be 259 ± 33.6 nM.

Turning to `CC(C)CC(NC(=O)N(C)C1[C@H]2Cc3ccc(O)cc3[C@]1(C)CCN2C)C(=O)O` (stereo in doubt) [Compound 76, 2-(3-((2R,6S,11S)-8-hydroxy-3,6-dimethyl-1,2,3,4,5,6-hexahydro-2,6-methanobenzo[d]azocin-11-yl)-3-methylureido)-4-methylpentanoic acid], the EC50 is 811 ± 53 nM on μ-opioid receptor [1] and above 20 µM on κ opioid receptor [2] (setting [6]). The Emax on μ-opioid receptor [1] is 79.3 ± 3.48%; on κ opioid receptor [2] (HEK-293 or CHO cells), -0.33 ± 0.67%. In addition, the Ki at κ opioid receptor [3] was determined as 107 ± 1.33 nM.

Regarding `CN1CC[C@]2(C)c3cc(O)ccc3CC1[C@@H]2COc1ncc([C@H](O)CO)cc1Cl` [Compound 43, (1S)-1-(5-chloro-6-(((6S,11R)-8-hydroxy-3,6-dimethyl-1,2,3,4,5,6-hexahydro-2,6-methanobenzo[d]azocin-11-yl)methoxy)pyridin-3-yl)ethane-1,2-diol], the 50% effective concentration (EC50) at μ-opioid receptor [1] is 3390 ± 63.4 nM; at κ opioid receptor [2], above 20 µM. For the same compound, at μ-opioid receptor [1], the Emax was 24.7 ± 3.28%. The compound further displayed an inhibitory constant (Ki) at κ opioid receptor [3] of 516 ± 126 nM.

With `CN1CC[C@]2(C)c3cc(O)ccc3CC1C2N(C)C(=O)Cc1ccc(S(C)(=O)=O)cc1` (stereo in doubt) [Compound 27, N-((2R,6R,11S)-8-hydroxy-3,6-dimethyl-1,2,3,4,5,6-hexahydro-2,6-methanobenzo[d]azocin-11-yl)-N-methyl-2-(4-(methylsulfonyl)phenyl)acetamide], at μ-opioid receptor [4], the EC50 amounted to 1.51 ± 0.24 nM and the Emax worked out at 103 ± 2.33%. The EC50 at κ opioid receptor [2] (setting [6]) was above 20 µM. Besides, the affinity on κ opioid receptor [3], expressed as Ki, was 35.2 ± 9.38 nM.

As to `CN1CC[C@]2(C)c3cc(O)ccc3CC1C2N(C)C(=O)/C=C/c1ccoc1` (stereo in doubt) [Compound 24, (E)-3-(furan-3-yl)-N-((2R,6R,11S)-8-hydroxy-3,6-dimethyl-1,2,3,4,5,6-hexahydro-2,6-methanobenzo[d]azocin-11-yl)-N-methylacrylamide], on κ opioid receptor [2] (setting [7]), the EC50 came out at 0.178 ± 0.0251 µM. The Emax at κ opioid receptor [2] (HEK-293 or CHO cells) was 30.7 ± 2.6%. In addition, the Ki on κ opioid receptor [3] worked out at 1.17 ± 0.09 nM.

For the compound `CCN(C(=O)/C=C/c1ccoc1)C1C2Cc3ccc(OC)cc3[C@@]1(C)CCN2C` (stereo in doubt) [Compound 25, (E)-N-ethyl-3-(furan-3-yl)-N-((2R,6R,11S)-8-methoxy-3,6-dimethyl-1,2,3,4,5,6-hexahydro-2,6-methanobenzo[d]azocin-11-yl)acrylamide], the 50% effective concentration (EC50) on μ-opioid receptor [4] is 49.8 ± 12.1 nM; at κ opioid receptor [2] (setting [6]), above 20 µM. Further, the figures for the Emax on μ-opioid receptor [4] and at κ opioid receptor [2] (HEK-293 or CHO cells) were 102 ± 1.67% and -1%, respectively. The compound also displayed a Ki at κ opioid receptor [3] of 147 ± 18.4 nM.

In the case of `COc1ccc2c(c1)[C@@]1(C)CCN(C)C(C2)[C@@H]1N(C)C(=O)/C=C/c1ccoc1` [Compound 16, (E)-3-(furan-3-yl)-N-((6R,11R)-8-methoxy-3,6-dimethyl-1,2,3,4,5,6-hexahydro-2,6-methanobenzo[d]azocin-11-yl)-N-methylacrylamide], the EC50 at κ opioid receptor [2] (setting [7]) turned out to be 1.05 ± 0.262 µM. Also, the Emax at κ opioid receptor [2] (HEK-293 or CHO cells) was determined as 15 ± 1.53%. On κ opioid receptor [3], this compound showed a Ki of 186 ± 34 nM.

With `CN(C)C(=O)C(CCN1CC[C@]2(C)c3cc(O)ccc3CC1[C@H]2O)(c1ccccc1)c1ccccc1` [Compound 22, 4-((6R,11S)-8,11-dihydroxy-6-methyl-1,2,5,6-tetrahydro-2,6-methanobenzo[d]azocin-3(4H)-yl)-N,N-dimethyl-2,2-diphenylbutanamide], at μ-opioid receptor [4], the EC50 is 300 ± 45.8 nM and the Emax worked out at 71 ± 3.46%. Besides, the EC50 on κ opioid receptor [2] (setting [6]) was above 20 µM. Moreover, the Ki on κ opioid receptor [3] was found to be 25.7 ± 8.74 nM.

As to `COc1ccc2c(c1)C1(C)CCN(CCC(C(=O)N(C)C)(c3ccccc3)c3ccccc3)C(C2)C1(O)O` (centres unmarked) [Compound 7, 4-(11,11-dihydroxy-8-methoxy-6-methyl-1,2,5,6-tetrahydro-2,6-methanobenzo[d]azocin-3(4H)-yl)-N,N-dimethyl-2,2-diphenylbutanamide], on κ opioid receptor [2] (setting [6]), the EC50 was above 20 µM. Besides, the Emax on κ opioid receptor [2] (HEK-293 or CHO cells) is -0.33 ± 0.67%. On κ opioid receptor [3], this compound came in with a Ki of 279 ± 39.8 nM.

For the compound `CN1CC[C@]2(C)c3cc(O)ccc3CC1C2N(C)CCc1ccccc1` (stereo in doubt) [Compound 29, (2R,6R,11S)-3,6-dimethyl-11-(methyl(phenethyl)amino)-1,2,3,4,5,6-hexahydro-2,6-methanobenzo[d]azocin-8-ol], the EC50 at μ-opioid receptor [4] was found to be 0.044 nM; at κ opioid receptor [2] (setting [7]) it was 0.233 ± 0.0749 µM. The Emax at μ-opioid receptor [4] stood at 100 ± 1.45%; at κ opioid receptor [2] (HEK-293 or CHO cells) it was 28.2 ± 4.66%. For the same compound, the Ki at κ opioid receptor [3] was 30.1 ± 11.8 nM.

As for `CN1CC[C@]2(C)c3cc(O)ccc3CC1C2N(C)C(=O)Nc1ccc(C#N)cc1` (stereo in doubt) [Compound 78, 3-(4-cyanophenyl)-1-((2R,6R,11S)-8-hydroxy-3,6-dimethyl-1,2,3,4,5,6-hexahydro-2,6-methanobenzo[d]azocin-11-yl)-1-methylurea], at μ-opioid receptor [4], the EC50 came to 6.09 ± 0.45 nM and the Emax amounted to 109 ± 3.28%. Besides, at κ opioid receptor [2] (setting [6]), the half-maximal effective concentration (EC50) is above 20 µM. This compound also yielded an inhibition constant (Ki) on κ opioid receptor [3] of 17.9 ± 4.33 nM.

On to `COc1ccc2c(c1)[C@@]1(C)CCN(CCC(C(=O)N(C)C)(c3ccccc3)c3ccccc3)C(C2)[C@H]1O` [Compound 17, 4-((6R,11S)-11-hydroxy-8-methoxy-6-methyl-1,2,5,6-tetrahydro-2,6-methanobenzo[d]azocin-3(4H)-yl)-N,N-dimethyl-2,2-diphenylbutanamide], for which, on κ opioid receptor [2] (setting [6]), the EC50 is above 20 µM. Further, the affinity on κ opioid receptor [3], expressed as Ki, was 89.9 ± 14.7 nM.

With `C[C@]12CCN(CC3CC3)[C@H](Cc3ccc(O)cc31)[C@H]2NS(=O)(=O)c1cccc(C(F)(F)F)c1` [Compound 128, N-((2R,6S,11S)-3-(cyclopropylmethyl)-8-hydroxy-6-methyl-1,2,3,4,5,6-hexahydro-2,6-methanobenzo[d]azocin-11-yl)-3-(trifluoromethyl)benzenesulfonamide], the EC50 on μ-opioid receptor [4] is 0.18 ± 0.069 nM; at μ-opioid receptor [1], 7.67 ± 0.79 nM; at κ opioid receptor [2] (setting [7]), 0.00035 ± 0.00015 µM; on κ opioid receptor [5] (read-out: GTPγS κ EC50), 0.74 ± 0.13 nM. For the same compound, the Emax at μ-opioid receptor [4] is 47.8 ± 1.25%; at μ-opioid receptor [1], 53.5 ± 3.52%; on κ opioid receptor [2] (HEK-293 or CHO cells), 40.3 ± 2.19%; on κ opioid receptor [5] (relative to U69,593, read-out: GTPγS κ Emax), 90.7 ± 1.45%.
